These results are taken from patent US8318743B2, “Medicament for the enhancement of cognitive function and neuroprotection” (Egis Gyogyszergyar Nyilvanosan Mukodo Reszvenytarsasag, priority 2006, dated 2012).

The test system of one assay is male gerbils. Description: global cerebral ischemia model by bilateral carotid artery occlusion, hippocampal CA1 neuronal damage. Format: in vivo, gerbil. The conditions noted are these: for proportion of the neuronal damage in CA1 region of the hippocampus / Effect %: 0.1 mg/kg ip.; for CA 1 lesion: 0.1 mg/kg ip. 45 minutes after surgery, average score on scale 0-6, four days after 3 min bilateral carotid occlusion; for Effect %: CA1 lesion score versus control animals. The procedure:
The neuroprotective effect of 4-chloro-5-{2-[4-(6-fluoro-1,2-benz[d]isoxazole-3-yl)piperidin-1-yl]ethyl-amino}-2-methyl-3-(2H)pyridazinone of the Formula (I) was tested in gerbils by global cerebral ischemia model by bilateral occlusion of the carotid artery and in rats by focal cerebral ischemia model via the permanent occlusion of the central cerebral artery. Risperidone[3-(2-(4-(6-fluoro-1,2-benz[d]isoxazole-3-yl)-1-piperidinyl)ethyl)-6,7,8,9-tetrahydro-2-methyl-4H-pyrido[1,2-a]pyrimidin-4-one] of the Formula (II) was used as reference compound.
The tests in the global cerebral ischemia model were performed in male gerbils weighing 50-80 g. During surgery, the animals were anaesthetized with ether, and the carotid arteries were set free in the paratracheal region by a ventral incision in the central region. The carotid arteries were separated from the vagosympatic nerve-trunk and were occluded for 3 minutes using artery forceps and subsequently released. The body temperature of the animals was checked during surgery and was kept in the normal range using an infrared lamp (37.5±0.5° C.). The test substance 4-chloro-5-{2-[4-(6-fluoro-1,2-benz[d]isoxazole-3-yl)piperidin-1-yl]ethyl-amino}-2-methyl-3-(2H)pyridazinone of the Formula (I) and the reference substance risperidone of the Formula (II) were administered in a dose of 0.1 mg/kg intraperitoneally 45 minutes after surgery.
Four days after surgery, animals were anaesthetised using pentobarbital-Na (60 mg/kg ip., 10 ml/kg) and the brains were perfused with saline thorough the left ventricle. The perfusion was continued for an additional 30 minutes using fixative solution (200 ml/animal). The fixative solution contained 0.1% of glutaraldehyde, 4% of paraformaldehyde and 0.2% of picric acid in 0.1 M phosphate buffer (pH 7.4). After perfusion, the brains were removed from the skulls and were stored in the above-mentioned fixative solution for at least one week at 4° C. in a refrigerator.
The cerebral part containing the dorsal hippocampus has been dissected into 60-μm thick coronal sections using a freezing microtome. The sections were washed four times by shaking for 30 minutes in 0.1 M phosphate buffer (pH 7.4) during which the cerebral sections were floating in the washing solution. Subsequently the cerebral sections were stained using silver impregnation. The staining by the silver impregnation method comprises (a) immersing the sample into a preparatory solution twice for 5 minutes (the preparatory solution comprises aqueous 2% sodium hydroxide and 0.875% ammonium hydroxide solution); (b) immersing the sample into the impregnating solution for 10 minutes (solution of 0.875% ammonium hydroxide and 0.5% silver nitrate in water), (c) washing the sample twice for 2 minutes and finally for one minute in the solution of 0.5% of sodium carbonate and 0.01% ammonium nitrate in aqueous 29.1% ethanol); (d) development for one minute by immersing the section into a development solution (1-1.5% formaldehyde and 0.01% ammonium nitrate in 9.9% ethanol), (e) fixation three times for three minutes each in 0.5% acetic acid solution. The stained cerebral sections were placed into 0.1 M phosphate buffer (pH 7.4) and subsequently chromic gelatine, mounted on slides and dehydrated (dried), treated with xylene for 10 minutes and the cover plates were attached using DPX histological adhesive (Fluka).
The bilateral neuronal damage in the CAl region of the hippocampus have been evaluated on a six-score scale as follows: 0—no damage observed; 1—0-10% neuronal damage; 2—10-30% neuronal damage; 3—30-50% neuronal damage; 4—50-70% neuronal damage; 5—70-90% neuronal damage; 6—90-100% neuronal damage. The average scores measured in the treated group were expressed in the percentage of the average scores observed in the case of the control animals. The statistical evaluation was carried out by non-parametric Mann-Whitney U-test.

In a further assay the test system is rats. In words: object recognition test. Format: in vivo, rat. The text has this:
The object recognition test in rats is based on the observation that when animals are encountered with unknown environment, they scour around and discover the available area. They act similarly in case of unknown objects arranged within their area.
In the present experimental arrangement, one day prior to the actual testing day, animals are placed in a box where they have two minutes to get acquainted with the surroundings. On the first day of the experiment, two identical objects (in the present arrangement, a plastic rinse bottle and a glass bottle) are placed in the box and the length of the period is determined during which the animals spend time while examining the two objects. The length of test period is 4-5 minutes. The difference between the length of the time periods spent with the examination of each object is the so-called discrimination index.
On the second day (24 hours after the first testing period) of the experiment, two different objects are placed in the box, among which one is known for the animals and the other is unknown.
In the case when a memory-enhancing drug is administered to the animals on the first day (e.g. orally, 60 minutes prior to testing), the animals are able to recall the already known objects better and the discrimination index is increased in favour of the unknown object.

The next assay deals with male Wistar rats. Description: passive avoidance test (step-through). Format: in vivo, rat. The conditions noted are these: for effect on memory in passive avoidance: 0.005 mg/kg p.o. The procedure: The passive avoidance tests were carried out in male Wistar rats weighing 200 to 220 g (Charles River, Budapest). The experimental animals were kept in a room having a circadian light-dark periods of 12-12 hours. The light was switched on at 6:00 am. The relative humidity of the room was 60±10%.
The tests were carried out in a so-called step-through type apparatus with five channels which is suitable for testing of passive avoidance learning.
The apparatus comprises two plexiglass boxes of 20×20×16 cm. One of the boxes is clear, the other one is non-transparent, black-painted. There exists a separating wall between the boxes having an opening of 7.5×8 cm. The opening can be opened or closed by a computer-controlled shutter door. The transition of the rat from one box into the other is detected by two parallel photocell rows and the door is automatically shut after the transition of the animal. The floor of the black-painted box consists of stainless steel rods equipped with an electrical circuit suitable for the delivery of an electric shock. There is a 10-W bulb above the door at the light (transparent) side of the apparatus.
The tests were carried out on two subsequent days with a 24-hour time difference.
The first part of the test is the so-called acquisition period, wherein the animal is able to gain specific information characteristic to the situation (upon entry into the dark box, an electric shock is delivered). The second part of the test is the so-called retention period. In this stage, the ability of the animal to remember the information which was collected in the first part is tested (upon entry into the dark part, an electric shock will be delivered, therefore it is less traumatic to stay in the light compartment).
On the first day of the testing (acquisition period), the numbered animals are placed into the clear compartment of the apparatus while the shutter door is closed. After 30 seconds, the door is opened and the animal could freely enter the dark box. At the same time, the clock for the measurement of the transition latency was started. The transition latency is the period of time which elapses between the opening of the shutter door and the transition of the animal from the light compartment into the dark one. When the animal entered the dark box, the clock measuring the latency is stopped. 3 seconds after the entry into the dark compartment, an electric shock of 0.4 mA is delivered for 10 seconds to the animals in the form of a paw shock. Animals belonging to the absolute control groups were not delivered a paw shock. After the electric shock, the animals were immediately removed from the apparatus. A 180-sec period was available for the animals to enter the dark compartment. […] This is the essence of acquisition.
During the second-day test (retention) after 24 hours, the animals were placed into the apparatus again. The subsequent part of the procedure was identical to that performed on the first day with the only difference that except for one group, no electric shock was delivered to the animals. Similarly to the first day, 180 sec was provided for the animals to enter the dark box.
During the tests directed to the determination of the effect of 4-chloro-5-{2-[4-(6-fluoro-1,2-benz[d]isoxazole-3-yl)piperidin-1-yl]ethyl-amino}-2-methyl-3-(2H)pyridazinone of the Formula (I), the experimental animals were treated with the test substance and the reference substance or with vehicle (0.4% methylcellulose) on the second day, 60 minutes before placing the animals into the apparatus. The treatment was carried out orally at a dose of 0.005 mg/kg in a volume of 5 ml/kg.
The statistical evaluation was carried out with multiple way variance analysis. The differences between groups were analyzed by Duncan-test.

Setting [1] is: 0.4 mA/10 sec electric shock + treatment 0.005 mg/kg p.o. 60 minutes before test.
[2] abbreviates: treatment 0.005 mg/kg p.o. without electric shock.

Each structure is given as a SMILES string. Marks after values point to notes of the source that are not given here.

In the case of `Cn1ncc(NCCN2CCC(c3noc4cc(F)ccc34)CC2)c(Cl)c1=O` [Formula (I), 4-chloro-5-{2-[4-(6-fluoro-1,2-benz[d]isoxazole-3-yl)piperidine-1-yl]ethyl-amino}-2-methyl-3-(2H)pyridazinone], in the assay with male gerbils, the “proportion of the neuronal damage in CA1 region of the hippocampus” value is reported as “significantly decreased”, the “CA 1 lesion” value was 2.80** and the Effect % was −46%. For the same compound, the “memory functions in object recognition” value with rats (0.01 mg/kg) was “significantly enhanced”. Moreover, the “Discrimination index(s) Day 1” value in the assay on rats (0.01 mg/kg p.o., Day 1) is recorded as 0.4 ± 0.8 s. Besides, in the assay on rats (0.01 mg/kg p.o., Day 2 (24 hours after first testing)), the “Discrimination index(s) Day 2” value amounted to 10.9 ± 1.4 s. In the assay on male Wistar rats, the “effect on memory in passive avoidance” value is listed as “significantly improved the memory”. Further, the “Transition latency First Day sec ± SE” value in the assay with male Wistar rats (setting [1]) is 155.9 ± 15.5^++ sec. For the same compound, in the assay with male Wistar rats (setting [2]), the “Transition latency First Day sec ± SE” value was determined as 21.2 ± 8.8 s.
For the compound `Cc1nc2n(c(=O)c1CCN1CCC(c3noc4cc(F)ccc34)CC1)CCCC2` [Risperidone, 3-(2-(4-(6-fluoro-1,2-benz[d]isoxazole-3-yl)-1-piperidinyl)-ethyl)-6,7,8,9-tetrahydro-2-methyl-4H-pyrido[1,2-a]pyrimidin-4-one, reference compound], in the assay with male gerbils, the “proportion of the neuronal damage in CA1 region of the hippocampus” value is listed as “ineffective”, the “CA 1 lesion” value is listed as 4.67 and the Effect % is −2%. For the same compound, in the assay on male Wistar rats, the “effect on memory in passive avoidance” value was “did not exhibit any effect”. Further, the “Transition latency First Day sec ± SE” value in the assay with male Wistar rats (setting [1]) is 85.5 ± 22.0 s. Besides, the “Transition latency First Day sec ± SE” value in the assay on male Wistar rats (setting [2]) was 36.1 ± 15.9 s.
